From patent publication US4948880A, “Anthracycline derivatives having cytostatic activity” (Behringwerke Aktiengesellschaft, priority 1986, dated 1990)
Values after ≈ are worked out from the molar mass of the structure shown. Like-named read-outs stand apart in the source and are kept apart here.

Tests used:
[1] = light / sunlight; cited from earlier work
[2] = test system: mouse L1210 leukemia cells; experiment: Formation of L1210 leukemia cell colonies in soft agar (cytostatic activity); assay type: cell-based; settings: Mus musculus, colonies > 60 μm, % of untreated control
Method: The cytostatic activity of the compounds according to the invention have been tested using mouse L1210 leukemia cells. Use was made for this by the formation of L1210 leukemia cell colonies in agar plates. This method is used to detect the effect of the test substances on the growth behavior of the cells over 1 hour or over several generations. In this connection, with a cell cycle time of 10-12 hours, about 14 consecutive generations are observed in a 7-day duration of the test. In this test, the substances having cytostatic activity according to the invention bring about a reduction, compared with an untreated control sample, in the number of colonies which is to be observed.
Procedure for Determining the Formation of L1210 Leukemia Cell Colonies in Soft Agar
500 leukemia cells per plate were incubated with various concentrations of the test substance at 37° C. for 1 hour. These cells were then washed twice with McCoy 5A medium, 0.3% agar was added, and finally the mixture was poured into Petri dishes. Controls were incubated only with fresh medium. In place of the incubation for one hour, in some cases various concentrations and test substances were mixed with the upper agar layer in order in this way to achieve continuous exposure of the cells throughout the incubation time. After the agar had solidified, the plates were incubated in an incubator at 37° C. for 7 days (5% by volume CO2, 95% relative atmospheric humidity). Thereafter the number of colonies with a diameter of more than 60 μm which had formed was counted. The results have been stated as the number of colonies in treated agar plates as a percentage of the untreated control. The dose-effect graph obtained in this way was used to determine the IC50 as a measure of the activity of the substance. The results for the compounds described here are compiled in Table 1 which follows, comparing with adriamycin.

Row | Structure (SMILES) | photolytic decomposition on exposure to light [1] | IC50 ([2]; L1210, 168 h, read-out: Continuous incubation IC50, continuous exposure, test substance mixed with upper agar layer, 7 days, 37° C.) | IC50 ([2]; L1210, read-out: 1 h incubation IC50, 1 hour incubation with test substance at 37° C., then washed, 7 days in agar)
1 | CC[C@@]1(O)C[C@H](O[C@H]2C[C@H](N(C)C)[C@H](O[C@H]3C[C@H](O)[C@H](O[C@H]4CCC(=O)[C@H](C)O4)[C@H](C)O3)[C@H](C)O2)c2c(cc3c(c2O)C(=O)c2c(O)cccc2C3=O)[C@H]1C(=O)OC [aclacinomycin A] | undergoes photolytic decomposition to a small extent |  | 
2 | COc1cccc2c1C(=O)c1c(O)c3c(c(O)c1C2=O)C[C@@](O)(C(=O)CO)C[C@@H]3O[C@H]1C[C@H](N)[C@H](O)[C@H](C)O1 [Adriamycin, 7-O-α-L-daunosaminyl-adriamycinone, reference compound] | photolytically decomposed on exposure to light | 0.02 µg/mL (≈ 0.0368 µM) | 0.04 µg/mL (≈ 0.0736 µM)
3 | COc1cccc2c1C(=O)c1c(O)c3c(c(O)c1C2=O)C[C@@](O)(C(C)=O)C[C@@H]3O[C@H]1C[C@H](N)[C@H](O)[C@H](C)O1 [daunomycin, 7-O-α-L-daunosaminyl-daunomycinone] | photolytically decomposed on exposure to light |  | 
